Test results from patent publication US20130059879A1, “Small Molecule Inhibitors of PFKFB3 and Glycolytic Flux and Their Methods of Use as Anti-Cancer Therapeutics” (UNIVERSITY OF LOUISVILLE RESEARCH FOUNDATION, INC., priority 2010, published 2013).
Values after ≈ are worked out from the molar mass of the structure shown.

System: U937
Test: Cancer cell proliferation, Alamar Blue assay, 72 hours
Format: cell-based
Details: Homo sapiens, U-937
Experimental: (§1) The ability of the compounds described herein to kill or inhibit the proliferation of cancer cells was measured using either the MTT assay, or the Alamar Blue assay, or the Cell Titer Glow® assay using 48 or 72 hours exposure. […] The procedures are briefly described below. Cells of the desired tumor cell line were plated at 2×10^5 cells/ml in 96 well plates. Twice the indicated concentrations of the compounds of the invention were added to cells the following day in an equal volume of media. 72 hours later, cells were lysed and subjected to ATP determination using the CellTiter Glo-Luminescent Cell Viability Assay kit (Promega, Madison, Wis.). Experiments were done in triplicate. When using the MTT assay or the Alamar blue assay, the experimental conditions are essentially similar; at the end of the incubation period, 20 microliters of the MTT solution is added per well and the samples are incubated for an additional four hours, rinsed, and the absorbance at 570 nm measured. […] Table 2 lists the IC50 values for the compounds of the invention in several cell lines including Jurkat, Calu-6, NCI-H82, U937, HCT-116, and MDA-MB-231 cancer cell lines.

IC50 [nM]	SMILES
14	COc1cccc(C(=O)c2cc3c(ccc4ccccc43)[nH]2)c1 [ACT-PFK-096, (3H-Benzo[e]indol-2-yl)-(3-methoxy-phenyl)-methanone]
40	COc1ccccc1C(=O)c1cc2c(ccc3ccccc32)[nH]1 [ACT-PFK-098, (3H-Benzo[e]indol-2-yl)-(2-methoxy-phenyl)-methanone]

System: Jurkat
Test: as above
Format: cell-based
Details: Homo sapiens, Jurkat
Experimental: as §1

IC50 [nM]	SMILES
1500	COc1cccc(C(=O)c2cc3c(ccc4ccccc43)[nH]2)c1 [ACT-PFK-096, (3H-Benzo[e]indol-2-yl)-(3-methoxy-phenyl)-methanone]
405	COc1ccccc1C(=O)c1cc2c(ccc3ccccc32)[nH]1 [ACT-PFK-098, (3H-Benzo[e]indol-2-yl)-(2-methoxy-phenyl)-methanone]

System: HCT-116
Test: as above
Format: cell-based
Details: Homo sapiens, HCT-116
Experimental: as §1

IC50 [nM]	SMILES
695	COc1cccc(C(=O)c2cc3c(ccc4ccccc43)[nH]2)c1 [ACT-PFK-096, (3H-Benzo[e]indol-2-yl)-(3-methoxy-phenyl)-methanone]
490	COc1ccccc1C(=O)c1cc2c(ccc3ccccc32)[nH]1 [ACT-PFK-098, (3H-Benzo[e]indol-2-yl)-(2-methoxy-phenyl)-methanone]

System: NCI-H82
Test: as above
Format: cell-based
Details: Homo sapiens, NCI-H82, read-out: IC50 NCl-H82
Experimental: as §1

IC50 [nM]	SMILES
155	COc1cccc(C(=O)c2cc3c(ccc4ccccc43)[nH]2)c1 [ACT-PFK-096, (3H-Benzo[e]indol-2-yl)-(3-methoxy-phenyl)-methanone]
210	COc1ccccc1C(=O)c1cc2c(ccc3ccccc32)[nH]1 [ACT-PFK-098, (3H-Benzo[e]indol-2-yl)-(2-methoxy-phenyl)-methanone]

System: Calu-6
Test: as above
Format: cell-based
Details: Homo sapiens, Calu-6
Experimental: as §1

IC50 [nM]	SMILES
20	COc1cccc(C(=O)c2cc3c(ccc4ccccc43)[nH]2)c1 [ACT-PFK-096, (3H-Benzo[e]indol-2-yl)-(3-methoxy-phenyl)-methanone]
220	COc1ccccc1C(=O)c1cc2c(ccc3ccccc32)[nH]1 [ACT-PFK-098, (3H-Benzo[e]indol-2-yl)-(2-methoxy-phenyl)-methanone]

System: not listed separately
Test: Microsomal stability in human liver microsomes
Format: in vitro ADME
Details: 0 min
Experimental: Microsomal stability in vitro in different biologic media (liver microsomes, S9 fraction, hepatocytes) and species is ascertained to evaluate the rate at which a compound undergoes metabolism in the experimental in vitro conditions. Results for some compounds of the invention after a 60 minutes incubation period in human liver microsomes are shown in the Table 6 below. […] Experimental conditions are briefly described here: the stability in human liver microsomes of several compounds was done over […] at 37° C. using pooled mixed gender human liver microsomes. These liver microsomes were prepared at 1.0 mg/ml of microsomal protein in a 100 mM potassium phosphate pH 7.4 buffer with 1 mM NADPH. The media was incubated at 37° C. with the compound in solution in DMSO. The concentration of the compound was followed by LC/MS-MS as a function of time. Samples were assayed at t=0, 15, 30, and 60 minutes. Testosterone was used as a positive control. The same experiment was performed with mouse, rat or dog liver microsomes instead of human liver microsomes.

HLM, Mean metabolized (%)	SMILES
0.0	COc1cccc(C(=O)c2cc3c(ccc4ccccc43)[nH]2)c1 [ACT-PFK-096, (3H-Benzo[e]indol-2-yl)-(3-methoxy-phenyl)-methanone]

Same assay, conditions: 60 min incubation, 1.0 mg/ml microsomal protein, 1 mM NADPH, 37° C.

HLM, Mean metabolized (%)	SMILES
99	COc1cccc(C(=O)c2cc3c(ccc4ccccc43)[nH]2)c1 [ACT-PFK-096, (3H-Benzo[e]indol-2-yl)-(3-methoxy-phenyl)-methanone]

System: Jurkat cells
Test: Inhibition of 14C-2-deoxyglucose uptake
Format: cell-based
Details: Homo sapiens, 3 hours
Experimental: Inhibition of PFKFB3 results in inhibiting glycolysis. Several feedback or feedforward activation and inhibition mechanisms exist so that, by a feedback mechanism, inhibiting the activity of PFKFB3 may inhibit glucose uptake by cells. An assay was developed to determine if there was inhibition of glucose uptake following exposure to the compounds on the invention. Briefly, Jurkat cells were plated at 1×10^5/mL in RPM′ 1640 supplemented with 10% fetal bovine serum and 50 μg/mL gentamicin sulfate. Cells were immediately treated with vehicle or 5 μmol/L of the compound of the invention for 3 hours and subsequently placed in glucose-free RPMI 1640 for 30 min. ^14C-2-deoxyglucose (0.25 μCi/mL; Perkin Elmer) was added for an additional 60 min and cells were then washed three with ice-cold RPMI 1640 containing no glucose. Cell lysates were collected in 500 μL of 0.1% SDS, and scintillation counts (counts/min) were measured on 400 μL of lysate. Counts were normalized to protein concentration.

SMILES	inhibition at 5 µM [%]
COc1cccc(C(=O)c2cc3c(ccc4ccccc43)[nH]2)c1 [ACT-PFK-096, (3H-Benzo[e]indol-2-yl)-(3-methoxy-phenyl)-methanone]	29
COc1ccccc1C(=O)c1cc2c(ccc3ccccc32)[nH]1 [ACT-PFK-098, (3H-Benzo[e]indol-2-yl)-(2-methoxy-phenyl)-methanone]	25

Biological target: T1, PFKFB3 (Homo sapiens, UniProt Q16875)
T1 construct: GST
T1 sequence (Q16875 whole entry, species assumed): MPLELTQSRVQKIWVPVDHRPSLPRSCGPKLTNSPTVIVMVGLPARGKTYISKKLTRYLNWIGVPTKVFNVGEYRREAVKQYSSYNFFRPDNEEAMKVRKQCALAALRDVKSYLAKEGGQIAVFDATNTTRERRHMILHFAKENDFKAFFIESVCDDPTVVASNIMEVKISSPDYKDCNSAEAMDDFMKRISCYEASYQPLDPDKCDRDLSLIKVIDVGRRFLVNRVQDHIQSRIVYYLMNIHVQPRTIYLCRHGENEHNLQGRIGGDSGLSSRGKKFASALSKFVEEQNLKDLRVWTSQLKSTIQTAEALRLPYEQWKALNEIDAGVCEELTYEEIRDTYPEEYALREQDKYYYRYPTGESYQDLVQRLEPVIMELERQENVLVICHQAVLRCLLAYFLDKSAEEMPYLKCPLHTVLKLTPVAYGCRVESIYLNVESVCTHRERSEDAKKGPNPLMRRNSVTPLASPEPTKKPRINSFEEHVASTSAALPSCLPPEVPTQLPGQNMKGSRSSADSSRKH
Test: Inhibition of recombinant PFKFB3 kinase activity (ADP Glow assay)
Format: biochemical
Details: 250 nM analog concentration; read-out: % Inhibition of PFKFB3 Enzymatic Activity
Experimental: PFKFB3 was prepared by expression in E. coli and purified by GST column and column chromatography. […] The recombinant protein was pure and active as determined by the results of a kinase activity assay commercially available (such as ADP Glow® assay, […]). The same assay was used to determine the inhibition of the protein and the results are shown in Table 5 below (IC50 values or percent inhibition at a fixed concentration). Results confirmed that the compounds of the invention have low nanomolar IC50 values, interacting with PFKFB3 and inhibiting its enzymatic activity.

inhibition at 0.25 µM [%]	SMILES
0	COc1cccc(C(=O)c2cc3c(ccc4ccccc43)[nH]2)c1 [ACT-PFK-096, (3H-Benzo[e]indol-2-yl)-(3-methoxy-phenyl)-methanone]

System: not listed separately
Test: Solubility in solvents and excipients, 1 hour at room temperature, HPLC
Format: physicochemical
Details: aqueous with cosolvent or surfactant or cyclodextrin, thermodynamic from solid; Cre:EtOH:Saline 5:5:90 mixture, 1 hour at room temperature; read-out: Solubility Cre:EtOH:Saline
Experimental: Chemical properties of the compounds of the invention were investigated, including the solubility in several solvents and pharmaceutically accepted excipients. […] Briefly, selected compounds of the invention are dissolved in a small volume of the solvents/excipients of interest at room temperature over 1 hour in typically 1 ml and the concentration is measured by HPLC after filtration.

solubility at 1 h [µg/mL]	SMILES
1700 (≈ 5.64 mM)	COc1cccc(C(=O)c2cc3c(ccc4ccccc43)[nH]2)c1 [ACT-PFK-096, (3H-Benzo[e]indol-2-yl)-(3-methoxy-phenyl)-methanone]
2400 (≈ 7.96 mM)	COc1ccccc1C(=O)c1cc2c(ccc3ccccc32)[nH]1 [ACT-PFK-098, (3H-Benzo[e]indol-2-yl)-(2-methoxy-phenyl)-methanone]

Same assay, conditions: ethanol, organic solvent or mixture, thermodynamic from solid; EtOH, 1 hour at room temperature; read-out: Solubility EtOH

solubility at 1 h [µg/mL]	SMILES
2800 (≈ 9.29 mM)	COc1cccc(C(=O)c2cc3c(ccc4ccccc43)[nH]2)c1 [ACT-PFK-096, (3H-Benzo[e]indol-2-yl)-(3-methoxy-phenyl)-methanone]
4600 (≈ 15.3 mM)	COc1ccccc1C(=O)c1cc2c(ccc3ccccc32)[nH]1 [ACT-PFK-098, (3H-Benzo[e]indol-2-yl)-(2-methoxy-phenyl)-methanone]

Same assay, conditions: organic solvent or mixture, thermodynamic from solid; 1:1 cremophor EL-P:ethanol mixture, 1 hour at room temperature; read-out: Solubility Cre:EtOH

solubility at 1 h [µg/mL]	SMILES
29700 (≈ 98.6 mM)	COc1cccc(C(=O)c2cc3c(ccc4ccccc43)[nH]2)c1 [ACT-PFK-096, (3H-Benzo[e]indol-2-yl)-(3-methoxy-phenyl)-methanone]
29000 (≈ 96.2 mM)	COc1ccccc1C(=O)c1cc2c(ccc3ccccc32)[nH]1 [ACT-PFK-098, (3H-Benzo[e]indol-2-yl)-(2-methoxy-phenyl)-methanone]

Same assay, conditions: organic solvent or mixture, thermodynamic from solid; Acetone, 1 hour at room temperature; read-out: Solubility Acetone

solubility at 1 h [µg/mL]	SMILES
25800 (≈ 85.6 mM)	COc1cccc(C(=O)c2cc3c(ccc4ccccc43)[nH]2)c1 [ACT-PFK-096, (3H-Benzo[e]indol-2-yl)-(3-methoxy-phenyl)-methanone]
9300 (≈ 30.9 mM)	COc1ccccc1C(=O)c1cc2c(ccc3ccccc32)[nH]1 [ACT-PFK-098, (3H-Benzo[e]indol-2-yl)-(2-methoxy-phenyl)-methanone]

Same assay, conditions: organic solvent or mixture, thermodynamic from solid; Cremophor, 1 hour at room temperature; read-out: Solubility Cremophor

solubility at 1 h [µg/mL]	SMILES
1200 (≈ 3.98 mM)	COc1cccc(C(=O)c2cc3c(ccc4ccccc43)[nH]2)c1 [ACT-PFK-096, (3H-Benzo[e]indol-2-yl)-(3-methoxy-phenyl)-methanone]
30200 (≈ 100 mM)	COc1ccccc1C(=O)c1cc2c(ccc3ccccc32)[nH]1 [ACT-PFK-098, (3H-Benzo[e]indol-2-yl)-(2-methoxy-phenyl)-methanone]

Same assay, conditions: organic solvent or mixture, thermodynamic from solid; DCM, 1 hour at room temperature; read-out: Solubility DCM

solubility at 1 h [µg/mL]	SMILES
8900 (≈ 29.5 mM)	COc1cccc(C(=O)c2cc3c(ccc4ccccc43)[nH]2)c1 [ACT-PFK-096, (3H-Benzo[e]indol-2-yl)-(3-methoxy-phenyl)-methanone]
10400 (≈ 34.5 mM)	COc1ccccc1C(=O)c1cc2c(ccc3ccccc32)[nH]1 [ACT-PFK-098, (3H-Benzo[e]indol-2-yl)-(2-methoxy-phenyl)-methanone]

Same assay, conditions: organic solvent or mixture, thermodynamic from solid; Tween 80, 1 hour at room temperature; read-out: Solubility Tween 80

solubility at 1 h [µg/mL]	SMILES
1800 (≈ 5.97 mM)	COc1cccc(C(=O)c2cc3c(ccc4ccccc43)[nH]2)c1 [ACT-PFK-096, (3H-Benzo[e]indol-2-yl)-(3-methoxy-phenyl)-methanone]
37000 (≈ 123 mM)	COc1ccccc1C(=O)c1cc2c(ccc3ccccc32)[nH]1 [ACT-PFK-098, (3H-Benzo[e]indol-2-yl)-(2-methoxy-phenyl)-methanone]

Same assay, conditions: organic solvent or mixture, thermodynamic from solid; Tween80:EtOH 6:4 mixture, 1 hour at room temperature; read-out: Solubility Twee80:EtOH

solubility at 1 h [µg/mL]	SMILES
18700 (≈ 62.1 mM)	COc1cccc(C(=O)c2cc3c(ccc4ccccc43)[nH]2)c1 [ACT-PFK-096, (3H-Benzo[e]indol-2-yl)-(3-methoxy-phenyl)-methanone]
32800 (≈ 109 mM)	COc1ccccc1C(=O)c1cc2c(ccc3ccccc32)[nH]1 [ACT-PFK-098, (3H-Benzo[e]indol-2-yl)-(2-methoxy-phenyl)-methanone]
